Test results published in the kinase profiling compilation of Christmann-Franck et al. (2016).

Columns and labels:
Experiment in all cases: KINOMEscan competition binding
Details in all cases: compound 10.0 µM
CAMK2B (human) = CAMK2B (human) (UniProt Q13554)
CDKL5 (human) = CDKL5 (human) (UniProt O76039)
CLK3 (human) = CLK3 (human) (UniProt P49761)
CSF1R (human) = CSF1R (human) (UniProt P07333)
CSK (human) = CSK (human) (UniProt P41240)
DAPK2 (human) = DAPK2 (human) (UniProt Q9UIK4)
DYRK1B (human) = DYRK1B (human) (UniProt Q9Y463)
[1] = test system: EGFR (human), P00533 [A750P; 747-749 del]
EIF2AK1 (human) = EIF2AK1 (human) (UniProt Q9BQI3)
FES (human) = FES (human) (UniProt P07332)
FGFR1 (human) = FGFR1 (human) (UniProt P11362)
FGR (human) = FGR (human) (UniProt P09769)
FRK (human) = FRK (human) (UniProt P42685)
ITK (human) = ITK (human) (UniProt Q08881)
Sequence of ITK (human) (Q08881 whole entry, looked up): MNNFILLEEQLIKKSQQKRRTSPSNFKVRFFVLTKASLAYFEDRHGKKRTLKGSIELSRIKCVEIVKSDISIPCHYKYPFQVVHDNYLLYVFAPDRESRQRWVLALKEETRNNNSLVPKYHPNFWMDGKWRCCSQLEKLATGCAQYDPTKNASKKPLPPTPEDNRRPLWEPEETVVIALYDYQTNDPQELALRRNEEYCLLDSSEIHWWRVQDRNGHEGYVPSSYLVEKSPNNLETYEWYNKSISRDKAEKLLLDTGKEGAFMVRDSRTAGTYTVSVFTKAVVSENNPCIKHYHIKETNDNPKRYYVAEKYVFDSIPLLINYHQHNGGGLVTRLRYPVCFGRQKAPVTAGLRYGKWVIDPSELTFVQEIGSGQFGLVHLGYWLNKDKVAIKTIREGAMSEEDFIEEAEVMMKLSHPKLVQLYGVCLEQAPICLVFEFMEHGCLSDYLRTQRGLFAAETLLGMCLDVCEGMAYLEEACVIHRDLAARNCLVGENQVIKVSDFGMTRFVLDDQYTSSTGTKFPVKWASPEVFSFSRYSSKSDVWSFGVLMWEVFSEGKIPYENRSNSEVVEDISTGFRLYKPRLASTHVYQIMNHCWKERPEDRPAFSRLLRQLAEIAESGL

[2] = target: JAK1 JH2 pseudokinase (human) (UniProt P23458)
Sequence of JAK1 JH2 pseudokinase (human) (P23458 whole entry, looked up): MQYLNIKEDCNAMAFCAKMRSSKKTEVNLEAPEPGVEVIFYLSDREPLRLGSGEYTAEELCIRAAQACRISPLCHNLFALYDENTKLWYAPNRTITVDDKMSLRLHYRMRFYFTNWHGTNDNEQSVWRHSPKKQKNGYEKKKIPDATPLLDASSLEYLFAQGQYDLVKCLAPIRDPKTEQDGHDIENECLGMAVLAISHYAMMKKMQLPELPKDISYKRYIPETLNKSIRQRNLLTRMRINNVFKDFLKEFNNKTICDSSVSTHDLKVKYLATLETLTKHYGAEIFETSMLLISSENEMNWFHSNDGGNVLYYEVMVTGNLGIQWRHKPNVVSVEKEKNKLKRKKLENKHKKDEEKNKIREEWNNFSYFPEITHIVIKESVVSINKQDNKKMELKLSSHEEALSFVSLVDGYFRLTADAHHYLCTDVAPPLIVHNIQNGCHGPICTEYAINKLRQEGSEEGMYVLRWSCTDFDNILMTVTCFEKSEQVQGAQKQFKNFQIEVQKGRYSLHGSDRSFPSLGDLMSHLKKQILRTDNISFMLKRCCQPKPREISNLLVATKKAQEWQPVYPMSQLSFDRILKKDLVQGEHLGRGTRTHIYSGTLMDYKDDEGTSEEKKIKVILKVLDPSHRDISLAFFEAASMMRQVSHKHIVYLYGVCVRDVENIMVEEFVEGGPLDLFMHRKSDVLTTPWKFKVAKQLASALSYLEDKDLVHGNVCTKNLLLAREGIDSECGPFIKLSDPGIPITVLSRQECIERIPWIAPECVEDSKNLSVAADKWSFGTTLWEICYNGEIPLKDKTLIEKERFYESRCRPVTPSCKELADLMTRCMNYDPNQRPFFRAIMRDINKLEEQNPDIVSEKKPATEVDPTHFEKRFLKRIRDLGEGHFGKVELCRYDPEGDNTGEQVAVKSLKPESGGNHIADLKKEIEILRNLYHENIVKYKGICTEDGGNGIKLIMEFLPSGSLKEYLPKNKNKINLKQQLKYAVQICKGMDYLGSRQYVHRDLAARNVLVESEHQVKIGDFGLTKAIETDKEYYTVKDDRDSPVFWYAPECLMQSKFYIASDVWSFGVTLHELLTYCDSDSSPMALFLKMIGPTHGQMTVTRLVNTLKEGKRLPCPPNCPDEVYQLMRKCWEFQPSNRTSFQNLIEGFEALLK

[3] = target: JAK3 JH1 catalytic (human) (UniProt P52333)
Sequence of JAK3 JH1 catalytic (human) (P52333 whole entry, looked up): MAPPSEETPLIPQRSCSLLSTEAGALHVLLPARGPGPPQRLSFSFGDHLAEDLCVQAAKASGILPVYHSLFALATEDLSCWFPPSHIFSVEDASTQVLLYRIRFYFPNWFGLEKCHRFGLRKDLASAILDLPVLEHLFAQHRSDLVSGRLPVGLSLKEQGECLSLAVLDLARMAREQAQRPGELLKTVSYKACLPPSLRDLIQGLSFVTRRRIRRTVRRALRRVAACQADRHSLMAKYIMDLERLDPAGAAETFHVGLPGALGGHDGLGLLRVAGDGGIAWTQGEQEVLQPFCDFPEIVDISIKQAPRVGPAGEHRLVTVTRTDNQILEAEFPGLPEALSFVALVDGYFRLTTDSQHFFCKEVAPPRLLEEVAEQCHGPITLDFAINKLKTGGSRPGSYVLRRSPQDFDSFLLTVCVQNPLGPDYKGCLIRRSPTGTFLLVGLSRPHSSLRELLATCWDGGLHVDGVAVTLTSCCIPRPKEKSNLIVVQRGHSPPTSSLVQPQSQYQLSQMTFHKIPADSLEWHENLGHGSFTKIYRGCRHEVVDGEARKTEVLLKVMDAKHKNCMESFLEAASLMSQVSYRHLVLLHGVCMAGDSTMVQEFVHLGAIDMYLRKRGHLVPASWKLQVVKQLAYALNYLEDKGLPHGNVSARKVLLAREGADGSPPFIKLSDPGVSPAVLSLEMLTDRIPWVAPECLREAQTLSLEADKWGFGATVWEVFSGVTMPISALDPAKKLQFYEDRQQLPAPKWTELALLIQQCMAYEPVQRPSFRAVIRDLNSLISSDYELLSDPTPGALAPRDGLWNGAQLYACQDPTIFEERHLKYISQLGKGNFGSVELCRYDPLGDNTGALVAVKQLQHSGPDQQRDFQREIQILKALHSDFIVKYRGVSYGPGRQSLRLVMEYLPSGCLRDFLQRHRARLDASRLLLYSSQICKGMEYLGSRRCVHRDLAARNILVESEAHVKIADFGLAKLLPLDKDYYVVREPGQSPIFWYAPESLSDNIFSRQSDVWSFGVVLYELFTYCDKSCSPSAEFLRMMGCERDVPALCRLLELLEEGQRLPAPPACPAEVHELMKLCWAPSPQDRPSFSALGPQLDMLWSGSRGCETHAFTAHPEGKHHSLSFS

LTK (human) = LTK (human) (UniProt P29376)
MAP4K5 (human) = MAP4K5 (human) (UniProt Q9Y4K4)
MAPK1 (human) = MAPK1 (human) (UniProt P28482)
MAPKAPK2 (human) = MAPKAPK2 (human) (UniProt P49137)
Sequence of MAPKAPK2 (human) (P49137 whole entry, looked up): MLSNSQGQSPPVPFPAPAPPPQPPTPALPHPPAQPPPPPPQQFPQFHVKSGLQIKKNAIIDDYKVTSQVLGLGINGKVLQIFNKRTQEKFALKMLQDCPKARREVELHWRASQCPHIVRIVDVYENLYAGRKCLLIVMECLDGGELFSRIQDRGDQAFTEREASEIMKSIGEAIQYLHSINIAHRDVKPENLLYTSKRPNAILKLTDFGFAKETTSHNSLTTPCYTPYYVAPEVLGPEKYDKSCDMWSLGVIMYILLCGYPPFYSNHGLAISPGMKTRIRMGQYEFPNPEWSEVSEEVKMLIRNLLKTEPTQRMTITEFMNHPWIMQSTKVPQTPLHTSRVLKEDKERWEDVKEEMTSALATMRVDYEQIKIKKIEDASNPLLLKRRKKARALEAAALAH

MAPKAPK5 (human) = MAPKAPK5 (human) (UniProt Q8IW41)
[4] = test system: MET (human), P08581 [M1250T]
MKNK1 (human) = MKNK1 (human) (UniProt Q9BUB5)
MST1R (human) = MST1R (human) (UniProt Q04912)
MYLK2 (human) = MYLK2 (human) (UniProt Q9H1R3)
NTRK1 (human) = NTRK1 (human) (UniProt P04629)
OXSR1 (human) = OXSR1 (human) (UniProt O95747)
PAK4 (human) = PAK4 (human) (UniProt O96013)
PDGFRB (human) = PDGFRB (human) (UniProt P09619)
PIK3C2B (human) = PIK3C2B (human) (UniProt O00750)
Sequence of PIK3C2B (human) (O00750 whole entry, looked up): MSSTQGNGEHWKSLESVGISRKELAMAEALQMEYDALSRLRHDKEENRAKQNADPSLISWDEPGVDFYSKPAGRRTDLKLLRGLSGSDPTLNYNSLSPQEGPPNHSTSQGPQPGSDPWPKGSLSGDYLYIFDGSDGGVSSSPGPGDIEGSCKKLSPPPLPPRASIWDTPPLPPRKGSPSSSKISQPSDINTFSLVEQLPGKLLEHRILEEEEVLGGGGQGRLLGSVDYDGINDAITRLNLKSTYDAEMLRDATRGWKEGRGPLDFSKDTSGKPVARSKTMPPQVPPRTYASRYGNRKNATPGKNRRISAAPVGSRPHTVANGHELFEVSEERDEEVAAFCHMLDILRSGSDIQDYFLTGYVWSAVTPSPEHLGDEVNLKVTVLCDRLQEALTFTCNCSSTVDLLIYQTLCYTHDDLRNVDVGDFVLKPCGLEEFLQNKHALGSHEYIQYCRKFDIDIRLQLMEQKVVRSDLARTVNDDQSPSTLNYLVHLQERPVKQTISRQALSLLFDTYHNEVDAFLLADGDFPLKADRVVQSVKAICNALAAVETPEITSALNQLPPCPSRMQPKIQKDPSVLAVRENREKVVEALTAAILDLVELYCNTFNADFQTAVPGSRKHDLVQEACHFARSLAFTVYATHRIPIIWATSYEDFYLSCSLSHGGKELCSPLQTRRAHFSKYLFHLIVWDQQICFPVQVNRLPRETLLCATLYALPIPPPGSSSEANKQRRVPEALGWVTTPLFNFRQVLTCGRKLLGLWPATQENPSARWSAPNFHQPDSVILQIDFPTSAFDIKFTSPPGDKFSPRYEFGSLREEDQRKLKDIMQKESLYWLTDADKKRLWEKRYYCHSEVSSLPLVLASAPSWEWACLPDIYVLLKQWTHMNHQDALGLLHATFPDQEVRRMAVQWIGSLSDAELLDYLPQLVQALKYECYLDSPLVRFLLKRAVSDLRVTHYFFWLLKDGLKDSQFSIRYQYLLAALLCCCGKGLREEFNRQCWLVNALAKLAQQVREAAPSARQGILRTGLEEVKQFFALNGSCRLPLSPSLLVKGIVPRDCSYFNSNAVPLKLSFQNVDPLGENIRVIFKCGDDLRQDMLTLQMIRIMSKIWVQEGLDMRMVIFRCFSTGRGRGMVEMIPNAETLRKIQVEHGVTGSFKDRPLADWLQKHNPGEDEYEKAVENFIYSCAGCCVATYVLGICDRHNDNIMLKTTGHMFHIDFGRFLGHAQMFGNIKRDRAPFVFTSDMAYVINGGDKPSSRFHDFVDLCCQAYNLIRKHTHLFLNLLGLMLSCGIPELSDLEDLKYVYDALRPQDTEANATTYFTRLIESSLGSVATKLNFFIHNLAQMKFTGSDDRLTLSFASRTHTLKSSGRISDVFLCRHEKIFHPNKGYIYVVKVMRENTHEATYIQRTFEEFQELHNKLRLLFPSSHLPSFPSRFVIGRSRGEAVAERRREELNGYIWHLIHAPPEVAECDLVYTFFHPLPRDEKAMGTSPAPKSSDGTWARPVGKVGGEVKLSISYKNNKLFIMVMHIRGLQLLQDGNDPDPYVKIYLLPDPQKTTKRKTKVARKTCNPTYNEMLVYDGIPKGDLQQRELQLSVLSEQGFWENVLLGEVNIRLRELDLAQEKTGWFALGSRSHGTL

PIK3CB (human) = PIK3CB (human) (UniProt P42338)
PIP4K2C (human) = PIP4K2C (human) (UniProt Q8TBX8)
PIP5K1C (human) = PIP5K1C (human) (UniProt O60331)
PLK2 (human) = PLK2 (human) (UniProt Q9NYY3)
RPS6KA2 KD1 (human) = RPS6KA2 KD1 (human) (UniProt Q15349)
RPS6KA2 KD2 (human) = RPS6KA2 KD2 (human) (UniProt Q15349)
RPS6KA6 KD2 (human) = RPS6KA6 KD2 (human) (UniProt Q9UK32)
SLK (human) = SLK (human) (UniProt Q9H2G2)
STK38L (human) = STK38L (human) (UniProt Q9Y2H1)
TXK (human) = TXK (human) (UniProt P42681)
[5] = target: TYK2 JH1 catalytic (human) (UniProt P29597)

For `COc1ccc(-c2ccc3c(N4CCOCC4)nc(N4C[C@@H](C)O[C@@H](C)C4)nc3n2)cc1CO`, which kinase still bound, per cent of control (CAMK2B (human)) is on record?
The kinase still bound, per cent of control was 96%.

And the per cent of control (CDKL5 (human))?
Its per cent of control is 77%.

And the kinase still bound, per cent of control (CLK3 (human))?
The kinase still bound, per cent of control was 90%.

And the kinase still bound, per cent of control (CSF1R (human))?
Its kinase still bound, per cent of control is 90%.

What about the kinase still bound, per cent of control (CSK (human)) of the same compound?
The kinase still bound, per cent of control was 77%.

And the kinase still bound, per cent of control (DAPK2 (human))?
The kinase still bound, per cent of control was 80%.

What about the kinase still bound, per cent of control (DYRK1B (human)) of the same compound?
Its kinase still bound, per cent of control is 85%.

And the kinase still bound, per cent of control [1]?
Its kinase still bound, per cent of control is 100%.

And the kinase still bound, per cent of control (EIF2AK1 (human))?
The kinase still bound, per cent of control was 88%.

And the kinase still bound, per cent of control (FES (human))?
The kinase still bound, per cent of control was 99%.

And the kinase still bound, per cent of control (FGFR1 (human))?
Its kinase still bound, per cent of control is 100%.

What about the kinase still bound, per cent of control (FGR (human)) of the same compound?
Its kinase still bound, per cent of control is 100%.

What about the kinase still bound, per cent of control (FRK (human)) of the same compound?
Its kinase still bound, per cent of control is 100%.

What about the kinase still bound, per cent of control (ITK (human)) of the same compound?
Its kinase still bound, per cent of control is 88%.

What about the kinase still bound, per cent of control [2] of the same compound?
The kinase still bound, per cent of control was 100%.

And the kinase still bound, per cent of control [3]?
The kinase still bound, per cent of control was 100%.

And the kinase still bound, per cent of control (LTK (human))?
Its kinase still bound, per cent of control is 96%.

What about the kinase still bound, per cent of control (MAP4K5 (human)) of the same compound?
Its kinase still bound, per cent of control is 96%.

What about the kinase still bound, per cent of control (MAPK1 (human)) of the same compound?
Its kinase still bound, per cent of control is 100%.

What about the kinase still bound, per cent of control (MAPKAPK2 (human)) of the same compound?
The kinase still bound, per cent of control was 92%.

And the kinase still bound, per cent of control (MAPKAPK5 (human))?
Its kinase still bound, per cent of control is 77%.

What about the kinase still bound, per cent of control [4] of the same compound?
The kinase still bound, per cent of control was 100%.

What about the kinase still bound, per cent of control (MKNK1 (human)) of the same compound?
The kinase still bound, per cent of control was 36%.

What about the kinase still bound, per cent of control (MST1R (human)) of the same compound?
Its kinase still bound, per cent of control is 99%.

What about the kinase still bound, per cent of control (MYLK2 (human)) of the same compound?
The kinase still bound, per cent of control was 78%.

What about the kinase still bound, per cent of control (NTRK1 (human)) of the same compound?
Its kinase still bound, per cent of control is 72%.

What about the kinase still bound, per cent of control (OXSR1 (human)) of the same compound?
Its kinase still bound, per cent of control is 72%.

And the kinase still bound, per cent of control (PAK4 (human))?
Its kinase still bound, per cent of control is 86%.

What about the kinase still bound, per cent of control (PDGFRB (human)) of the same compound?
The kinase still bound, per cent of control was 95%.

And the kinase still bound, per cent of control (PIK3C2B (human))?
The kinase still bound, per cent of control was 85%.

And the kinase still bound, per cent of control (PIK3CB (human))?
The kinase still bound, per cent of control was 30%.

And the kinase still bound, per cent of control (PIP4K2C (human))?
Its kinase still bound, per cent of control is 87%.

And the kinase still bound, per cent of control (PIP5K1C (human))?
Its kinase still bound, per cent of control is 100%.

What about the kinase still bound, per cent of control (PLK2 (human)) of the same compound?
The kinase still bound, per cent of control was 100%.

And the kinase still bound, per cent of control (RPS6KA2 KD1 (human))?
Its kinase still bound, per cent of control is 100%.

What about the kinase still bound, per cent of control (RPS6KA2 KD2 (human)) of the same compound?
The kinase still bound, per cent of control was 94%.

And the kinase still bound, per cent of control (RPS6KA6 KD2 (human))?
The kinase still bound, per cent of control was 93%.

And the kinase still bound, per cent of control (SLK (human))?
Its kinase still bound, per cent of control is 98%.

What about the kinase still bound, per cent of control (STK38L (human)) of the same compound?
The kinase still bound, per cent of control was 95%.

And the kinase still bound, per cent of control (TXK (human))?
The kinase still bound, per cent of control was 100%.

What about the kinase still bound, per cent of control [5] of the same compound?
Its kinase still bound, per cent of control is 100%.

Which kinase still bound, per cent of control (CAMK2B (human)) does the source give for `CCC(=O)N1CCN(c2ccc(-n3c(=O)ccc4cnc5ccc(-c6cnc7ccccc7c6)cc5c43)cc2C(F)(F)F)CC1` here?
The kinase still bound, per cent of control was 100%.

And the per cent of control (CDKL5 (human))?
Its per cent of control is 100%.

What about the kinase still bound, per cent of control (CLK3 (human)) of the same compound?
The kinase still bound, per cent of control was 43%.

What about the kinase still bound, per cent of control (CSF1R (human)) of the same compound?
The kinase still bound, per cent of control was 24%.

What about the kinase still bound, per cent of control (CSK (human)) of the same compound?
Its kinase still bound, per cent of control is 71%.

And the kinase still bound, per cent of control (DYRK1B (human))?
Its kinase still bound, per cent of control is 87%.

What about the kinase still bound, per cent of control [1] of the same compound?
Its kinase still bound, per cent of control is 100%.

And the kinase still bound, per cent of control (EIF2AK1 (human))?
The kinase still bound, per cent of control was 57%.

And the kinase still bound, per cent of control (FES (human))?
The kinase still bound, per cent of control was 41%.

What about the kinase still bound, per cent of control (FGFR1 (human)) of the same compound?
Its kinase still bound, per cent of control is 96%.

And the kinase still bound, per cent of control (FGR (human))?
Its kinase still bound, per cent of control is 78%.

What about the kinase still bound, per cent of control (FRK (human)) of the same compound?
The kinase still bound, per cent of control was 60%.

And the kinase still bound, per cent of control (ITK (human))?
The kinase still bound, per cent of control was 100%.

And the kinase still bound, per cent of control [2]?
The kinase still bound, per cent of control was 76%.

And the kinase still bound, per cent of control [3]?
The kinase still bound, per cent of control was 100%.

What about the kinase still bound, per cent of control (LTK (human)) of the same compound?
The kinase still bound, per cent of control was 77%.

What about the kinase still bound, per cent of control (MAP4K5 (human)) of the same compound?
The kinase still bound, per cent of control was 8.1%.

What about the kinase still bound, per cent of control (MAPK1 (human)) of the same compound?
Its kinase still bound, per cent of control is 100%.

And the kinase still bound, per cent of control (MAPKAPK2 (human))?
The kinase still bound, per cent of control was 100%.

What about the kinase still bound, per cent of control (MAPKAPK5 (human)) of the same compound?
The kinase still bound, per cent of control was 100%.

And the kinase still bound, per cent of control [4]?
Its kinase still bound, per cent of control is 79%.

What about the kinase still bound, per cent of control (MKNK1 (human)) of the same compound?
The kinase still bound, per cent of control was 44%.

And the kinase still bound, per cent of control (MST1R (human))?
Its kinase still bound, per cent of control is 55%.

What about the kinase still bound, per cent of control (MYLK2 (human)) of the same compound?
The kinase still bound, per cent of control was 40%.

And the kinase still bound, per cent of control (NTRK1 (human))?
The kinase still bound, per cent of control was 64%.

And the kinase still bound, per cent of control (OXSR1 (human))?
The kinase still bound, per cent of control was 100%.

And the kinase still bound, per cent of control (PAK4 (human))?
The kinase still bound, per cent of control was 100%.

And the kinase still bound, per cent of control (PDGFRB (human))?
Its kinase still bound, per cent of control is 24%.

What about the kinase still bound, per cent of control (PIK3C2B (human)) of the same compound?
Its kinase still bound, per cent of control is 25%.

And the kinase still bound, per cent of control (PIK3CB (human))?
Its kinase still bound, per cent of control is 65%.

What about the kinase still bound, per cent of control (PIP4K2C (human)) of the same compound?
The kinase still bound, per cent of control was 58%.

What about the kinase still bound, per cent of control (PIP5K1C (human)) of the same compound?
The kinase still bound, per cent of control was 80%.

What about the kinase still bound, per cent of control (PLK2 (human)) of the same compound?
Its kinase still bound, per cent of control is 85%.

What about the kinase still bound, per cent of control (RPS6KA2 KD1 (human)) of the same compound?
Its kinase still bound, per cent of control is 100%.

And the kinase still bound, per cent of control (RPS6KA2 KD2 (human))?
The kinase still bound, per cent of control was 85%.

What about the kinase still bound, per cent of control (RPS6KA6 KD2 (human)) of the same compound?
Its kinase still bound, per cent of control is 86%.

And the kinase still bound, per cent of control (SLK (human))?
Its kinase still bound, per cent of control is 94%.

What about the kinase still bound, per cent of control (STK38L (human)) of the same compound?
Its kinase still bound, per cent of control is 94%.

What about the kinase still bound, per cent of control (TXK (human)) of the same compound?
The kinase still bound, per cent of control was 54%.

And the kinase still bound, per cent of control [5]?
The kinase still bound, per cent of control was 70%.
